Reference: patent US5132401A (George Washington University, Office of Sponsored Research, priority 1989, dated 1992)

System: anterior pituitary cells
Test: PRL assay: in vitro prolactin release from normal anterior pituitary cells, RIA
Assay type: cell-based, Sprague-Dawley rats
Conditions: maximum stimulatory concentration of TRH (100 nM); FIG. 12
Procedure: Inhibitory neurohormones and drugs were added during the final 20 minutes of the second rinse. […] After incubations, the medium is quickly removed and saved for radioimmunoassay (RIA).
PRL and GH were determined by standard RIA techniques (media diluted 1:30, 25-70 μl samples) using materials and protocols supplied by the NIDDK Rat Pituitary Hormone Distribution Program. Inter- and intra-assay variations for PRL and GH were less than 8% to 10%, respectively. All samples were assayed in duplicate, with results expressed in terms of NIDDK standards (rat PRL RP-2 and rat GH RP-1).

SMILES: NC(=O)[C@@H]1CCCN1C(=O)[C@H](Cc1cnc[nH]1)NC(=O)[C@@H]1CCC(=O)N1 [TRH, thyrotropin releasing hormone]
- increase in PRL release compared to the control value: 480%
